Data as given in patent US10214544B2, “Imidazopyridazine and imidazothiadiazole compounds” (Universite de Montreal, priority 2015, dated 2019).

What follows are compounds tested against PAR4 (Homo sapiens (Human), UniProt Q96RI0) (assay: FLIPR assay in PAR4-expressing HEK293 cells (PAR4 antagonist activity)). Conditions: inhibition of H-Ala-Phe(4-F)-Pro-Gly-Trp-Leu-Val-Lys-Asn-Gly-NH2-induced intracellular calcium mobilization.
Format: cell-based
From the text: The FLIPR assay is an exemplary in vitro assay for measuring the activity of the PAR4 antagonists of the present invention. In this assay, intracellular calcium mobilization is induced in PAR4 expressing cells by a PAR4 agonist and calcium mobilization is monitored. See, e.g., Example A.
HEK293 cells stably expressing PAR4 were generated by a standard method of transfection of human PAR4 (F2R23) cDNA expression vector and selected based on PAR4 protein expression or mRNA expression. […] These cells also express endogenous PAR1 and can elicit calcium signal upon stimulation with PAR1 agonist peptide. Therefore, the same cells were also used to determine selectivity against PAR1 and agonist activity for both receptors. Cells from HEK293 PAR4 Clone 1.2A (BMS Arctic ID 383940) were propagated and used for calcium mobilization studies.
FLIPR-based calcium mobilization assay in HEK293 cells was used to measure PAR4 antagonism, agonism, and selectivity against PAR1. The activity of the PAR4 antagonists of the present invention were tested in PAR4 expressing cells by monitoring H-Ala-Phe(4-F)-[…]NH2-induced intracellular calcium mobilization. Counter screens for agonist activity and PAR1 antagonist activity were also performed. Briefly, PAR1/PAR4-expressing HEK293 cells were grown in DMEM (Life Technology, Grand Island, N.Y.) containing 10% heat-inactivated FBS, 1% Penicillin-Streptomycin, 10 μg/mL blasticidin, and 100 μg/mL Zeocin at 37° C. with 5% CO2. Cells were plated overnight prior to the experiment in a black 384-well Purecoat Amine clear bottom plate (Becton Dickinson Biosciences, San Jose, Calif.) at 10,000 cells/well in 30 μL growth medium and incubated in a humidified chamber at 37° C. with 5% CO2 overnight. Prior to compound addition, the cell medium was replaced with […] of 1× calcium and magnesium-containing Hank's Balanced Saline Solution (HBSS) (with 20 mM HEPES) and 1:1000 diluted fluorescent calcium indicator (Codex Biosolutions, Gaithersburg, Md.). After a 30 minute incubation period at 37° C. and a further 30 minute incubation and equilibration period at room temperature, 20 μL test compound (diluted in 1× HBSS buffer) was added at various concentrations at 0.17% dimethyl sulfoxide (DMSO) final concentration. Changes in fluorescence intensity were measured using a Functional Drug Screening System (FDSS, Hamamatsu, Japan) to determine agonist activities. The cells were then incubated for 30 minutes at room temperature followed by addition of 20 μL of agonist peptide for antagonist activity measurement. […] Compound potency was derived from 11-point concentration-response curves.
The following Table sets out results obtained employing various compounds of the invention tested in the FLIPR assay. As indicated above, the FLIPR assay, an in vitro assay, measures the PAR4 antagonist activity of compounds tested as described in Example A.

Chain of PAR4 (Q96RI0 18-385): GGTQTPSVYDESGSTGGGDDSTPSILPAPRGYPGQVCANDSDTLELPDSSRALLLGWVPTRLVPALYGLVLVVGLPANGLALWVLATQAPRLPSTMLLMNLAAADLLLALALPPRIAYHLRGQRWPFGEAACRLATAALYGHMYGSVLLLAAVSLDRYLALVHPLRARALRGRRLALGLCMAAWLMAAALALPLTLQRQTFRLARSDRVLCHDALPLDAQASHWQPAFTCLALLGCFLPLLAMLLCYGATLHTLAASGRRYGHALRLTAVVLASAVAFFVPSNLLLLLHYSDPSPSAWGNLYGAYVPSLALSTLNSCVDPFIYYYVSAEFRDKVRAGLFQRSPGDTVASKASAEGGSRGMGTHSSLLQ

COc1cc(OCc2cccc(NC(=O)c3ccc(F)cc3C(F)(F)F)c2)c2cc(-c3cn4nc(OC)sc4n3)oc2c1 [Example 141] and COc1cc(OCc2cccc(NC(=O)c3ccc(F)cc3F)c2)c2cc(-c3cn4nc(OC)sc4n3)oc2c1 [Example 152] are within 1.5-fold of each other in EC50: 1.9 nM for the first, 1.3 nM for the second.

Going from COc1cc(OCc2cccc3c2CCN3C(=O)c2ccc(F)cc2)c2cc(-c3cn4nc(OC)sc4n3)oc2c1 [Example 116] to COc1cc(OCc2cccc3c2CCN3C(=O)c2ccc(C)cc2)c2cc(-c3cn4nc(OC)sc4n3)oc2c1 [Example 123], the EC50 falls from 140 nM to 5 nM (28-fold).

First: COc1cc(OCc2cccc(NC(=O)c3cccn3C)c2)c2cc(-c3cn4nc(OC)sc4n3)oc2c1 [Example 132]
Second: COc1cc(OCc2cccc(NC(=O)c3ccno3)c2)c2cc(-c3cn4nc(OC)sc4n3)oc2c1 [Example 155]
The EC50 of the first is 1.7-fold higher: 3.8 nM for the first, 2.3 nM for the second.

COc1cc(OCc2cccc(NC(=O)c3ccc(OC(F)F)cc3)c2)c2cc(-c3cn4nc(OC)sc4n3)oc2c1 [Example 164] and COc1cc(OCc2cccc(NC(=O)c3ccc(OC(F)(F)F)cc3)c2)c2cc(-c3cn4nc(OC)sc4n3)oc2c1 [Example 41] are within 1.5-fold of each other in EC50: 2 nM for the first, 1.4 nM for the second.

First: COc1cc(OCc2cccc(NC(=O)c3cccc(Br)c3)c2)c2cc(-c3cn4nc(OC)sc4n3)oc2c1 [Example 10]
Second: COc1cccc(C(=O)Nc2cccc(COc3cc(OC)cc4oc(-c5cn6nc(OC)sc6n5)cc34)c2)c1 [Example 160]
The EC50 of the first is 19-fold lower: 1.9 nM for the first, 36 nM for the second.

COc1cc(OCc2cccc(NC(=O)c3ccccc3I)c2)c2cc(-c3cn4nc(OC)sc4n3)oc2c1 [Example 24] and COc1cc(OCc2cccc(NC(=O)c3ccccc3OC)c2)c2cc(-c3cn4nc(OC)sc4n3)oc2c1 [Example 29] are within 1.5-fold of each other in EC50: 1.4 nM for the first, 1.1 nM for the second.

COc1cc(OCc2cccc(NC(=O)c3ccc(C#N)cc3)c2)c2cc(-c3cn4nc(OC)sc4n3)oc2c1 [Example 36] and COc1cc(OCc2cccc(NC(=O)c3ccc(I)cc3)c2)c2cc(-c3cn4nc(OC)sc4n3)oc2c1 [Example 39] are within 1.5-fold of each other in EC50: 2.5 nM for the first, 2.4 nM for the second.

COc1cc(OCc2cccc(NC(=O)c3c(C)noc3-c3ccccc3)c2)c2cc(-c3cn4nc(OC)sc4n3)oc2c1 [Example 59] and COc1cc(OCc2cccc(NC(=O)c3cnoc3-c3ccccc3)c2)c2cc(-c3cn4nc(OC)sc4n3)oc2c1 [Example 60] are within 1.5-fold of each other in EC50: 3.5 nM for the first, 2.9 nM for the second.

COc1cc(OCc2cccc(N(C)C(=O)c3ccccc3OC)c2)c2cc(-c3cn4nc(OC)sc4n3)oc2c1 [Example 86] and COc1cc(OCc2cccc(N(C)C(=O)c3ccccc3C)c2)c2cc(-c3cn4nc(OC)sc4n3)oc2c1 [Example 84] are within 1.5-fold of each other in EC50: 1.8 nM for the first, 2.5 nM for the second.

Compared with COc1cc(OCc2cccc(NC(=O)c3csc(-c4ccccc4)n3)c2)c2cc(-c3cn4nc(OC)sc4n3)oc2c1 [Example 72], COc1cc(OCc2cccc(NC(=O)c3csc(-c4cccc(C(F)(F)F)c4)n3)c2)c2cc(-c3cn4nc(OC)sc4n3)oc2c1 [Example 80] is 43-fold higher in EC50: 2.2 nM for the first, 94 nM for the second.

Going from COc1cc(OCc2cccc(NC(=O)c3cccc(Cl)c3F)c2)c2cc(-c3cn4nc(OC)sc4n3)oc2c1 [Example 151] to COc1cc(OCc2cccc(NC(=O)c3cc(F)ccc3C)c2)c2cc(-c3cn4nc(OC)sc4n3)oc2c1 [Example 75], the EC50 falls from 3.4 nM to 1.7 nM (2-fold).

COc1cc(OCc2cccc(N(C)C(=O)c3cncnc3)c2)c2cc(-c3cn4nc(OC)sc4n3)oc2c1 [Example 92] and COc1cc(OCc2cccc(N(C)C=O)c2)c2cc(-c3cn4nc(OC)sc4n3)oc2c1 [Example 97] are within 1.5-fold of each other in EC50: 3.5 nM for the first, 2.5 nM for the second.

COc1cc(OCc2cccc(NC(=O)c3ccc(N(C)C)cc3)c2)c2cc(-c3cn4nc(OC)sc4n3)oc2c1 [Example 43] and COC(=O)c1ccc(C(=O)Nc2cccc(COc3cc(OC)cc4oc(-c5cn6nc(OC)sc6n5)cc34)c2)cc1 [Example 34] are within 1.5-fold of each other in EC50: 1.6 nM for the first, 1.2 nM for the second.

Compared with COc1cc(OCc2cccc(NC(=O)c3ccc(Oc4ccccc4)nc3)c2)c2cc(-c3cn4nc(OC)sc4n3)oc2c1 [Example 51], COc1cc(OCc2cccc(NC(=O)c3ccc(OC)nc3)c2)c2cc(-c3cn4nc(OC)sc4n3)oc2c1 [Example 46] is 2.1-fold lower in EC50: 2.3 nM for the first, 1.1 nM for the second.

COc1cc(OCc2cccc(NC(=O)c3c(F)cccc3C(F)(F)F)c2)c2cc(-c3cn4nc(OC)sc4n3)oc2c1 [Example 147] and COc1cc(OCc2cccc(NC(=O)c3cc(C(F)(F)F)ccc3F)c2)c2cc(-c3cn4nc(OC)sc4n3)oc2c1 [Example 140] are within 1.5-fold of each other in EC50: 1.6 nM for the first, 1.5 nM for the second.

Going from COc1cc(OCc2cccc(NC(=O)c3ccccc3OC(C)=O)c2)c2cc(-c3cn4nc(OC)sc4n3)oc2c1 [Example 8] to COc1cc(OCc2cccc(NC(=O)COc3ccccc3)c2)c2cc(-c3cn4nc(OC)sc4n3)oc2c1 [Example 35], the EC50 falls from 1.6 nM to 1 nM (1.6-fold).

Going from COc1cc(OCc2cccc(NC(=O)c3sc(C)nc3C)c2)c2cc(-c3cn4nc(OC)sc4n3)oc2c1 [Example 50] to COc1cc(OCc2cccc(NC(=O)c3c(C)noc3C)c2)c2cc(-c3cn4nc(OC)sc4n3)oc2c1 [Example 45], the EC50 falls from 7.4 nM to 2.8 nM (2.6-fold).

First: COc1cc(OCc2cccc(NC(=O)c3cccc(C#N)c3)c2)c2cc(-c3cn4nc(OC)sc4n3)oc2c1 [Example 16]
Second: COc1cc(OCc2cccc(NC(=O)c3cc(Cl)cc(Cl)c3)c2)c2cc(-c3cn4nc(OC)sc4n3)oc2c1 [Example 19]
The EC50 of the first is 2.4-fold lower: 1.4 nM for the first, 3.3 nM for the second. The first is the more potent here.

Going from COc1cc(OCc2ccc3c(c2)N(C(=O)c2csc(C(F)(F)F)n2)CC3)c2cc(-c3cn4nc(OC)sc4n3)oc2c1 [Example 110] to COc1cc(OCc2cccc(NC(=O)c3csc(C(F)(F)F)n3)c2)c2cc(-c3cn4nc(OC)sc4n3)oc2c1 [Example 70], the EC50 rises from 0.52 nM to 1 nM (1.9-fold).

Going from COc1cc(OCc2cccc3c2CCN3C(=O)c2cc(C)cc(C(F)(F)F)c2)c2cc(-c3cn4nc(OC)sc4n3)oc2c1 [Example 125] to COc1cc(OCc2cccc3c2CCN3C(=O)c2cccc(F)c2)c2cc(-c3cn4nc(OC)sc4n3)oc2c1 [Example 121], the EC50 rises from 3.9 nM to 140 nM (36-fold). The first is the more potent here.

COc1cc(OCc2ccc3c(c2)N(C(=O)c2cccc(F)c2)CC3)c2cc(-c3cn4nc(OC)sc4n3)oc2c1 [Example 102] and COc1cc(OCc2cccc3c2CCN3C(=O)c2ccccc2C)c2cc(-c3cn4nc(OC)sc4n3)oc2c1 [Example 122] are within 1.5-fold of each other in EC50: 4.1 nM for the first, 5 nM for the second.

First: COc1cc(OCc2cccc(NC(=O)c3cnccn3)c2)c2cc(-c3cn4nc(OC)sc4n3)oc2c1 [Example 133]
Second: COc1cc(OCc2cccc(NC(=O)c3cc(F)cc(F)c3)c2)c2cc(-c3cn4nc(OC)sc4n3)oc2c1 [Example 159]
The EC50 of the first is 1.7-fold higher: 2.7 nM for the first, 1.6 nM for the second. The second is the more potent here.

COc1cc(OCc2cccc(NC(=O)C3CCCCC3)c2)c2cc(-c3cn4nc(OC)sc4n3)oc2c1 [Example 150] and COc1cc(OCc2cccc(NC(=O)OC(C)(C)C)c2)c2cc(-c3cn4nc(OC)sc4n3)oc2c1 [Example 3, tert-Butyl (3-(((6-methoxy-2-(2-methoxyimidazo[2,1-b][1,3,4]thiadiazol-6-yl)benzofuran-4-yl)oxy)methyl)phenyl)carbamate] are within 1.5-fold of each other in EC50: 2.3 nM for the first, 2.6 nM for the second.

Compared with COc1cc(OCc2cccc(NC(=O)c3cnc(-c4ccccc4)nc3C)c2)c2cc(-c3cn4nc(OC)sc4n3)oc2c1 [Example 66], COc1cc(OCc2cccc(NC(=O)c3ccc(C(F)(F)F)cc3)c2)c2cc(-c3cn4nc(OC)sc4n3)oc2c1 [Example 153] is 5.8-fold lower in EC50: 5.7 nM for the first, 0.99 nM for the second.

First: COc1cc(OCc2cccc3c2CCN3)c2cc(-c3cn4nc(OC)sc4n3)oc2c1 [Example 114, 6-(4-(Indolin-4-ylmethoxy)-6-methoxybenzofuran-2-yl)-2-methoxyimidazo[2,1-b][1,3,4]thiadiazole]
Second: COc1cc(OCc2cccc3c2CCN3C(=O)c2cncnc2)c2cc(-c3cn4nc(OC)sc4n3)oc2c1 [Example 126]
The EC50 of the first is 7-fold lower: 37 nM for the first, 260 nM for the second.

COc1cc(OC)cc(C(=O)Nc2cccc(COc3cc(OC)cc4oc(-c5cn6nc(OC)sc6n5)cc34)c2)c1 [Example 137] and COc1cc(OC(F)F)cc(C(=O)Nc2cccc(COc3cc(OC)cc4oc(-c5cn6nc(OC)sc6n5)cc34)c2)c1 [Example 78] are within 1.5-fold of each other in EC50: 3.4 nM for the first, 2.3 nM for the second.

Going from COc1cc(OCc2cccc3c2CCN3C(=O)c2ccccc2OC)c2cc(-c3cn4nc(OC)sc4n3)oc2c1 [Example 124] to COc1cc(OCc2cccc3c2CCN3C(=O)c2ccc(OC)nc2)c2cc(-c3cn4nc(OC)sc4n3)oc2c1 [Example 127], the EC50 falls from 190 nM to 2.9 nM (66-fold). The second is the more potent here.
